Laboratory results as given in US20250134907A1, “FUSED DIAZEPINES AS AGONISTS OF THE INSULIN-LIKE 3 (INSL3) PEPTIDE RECEPTOR RXFP2 AND METHODS OF USE THEREOF” (The United States of America,as represented by the …, priority 2022, published 2025).
pEC50: −log10 of the molar value.

Target: T1, RXFP2 (Homo sapiens, UniProt Q8WXD0)
T1 construct: expressed in transfected cells
Assay: HTRF cAMP assay in HEK293T cells stably expressing RXFP2 (HEK-RXFP2)
Assay type: cell-based
Settings: for % EFF vs. 1 nM INSL3 (a) / pEC50 / % EFF vs. 1 nM INSL3 (b): IBMX 200 μM; for % EFF vs. 1 nM INSL3 (a): maximum cAMP response normalized to 1 nM INSL3 response; for % EFF vs. 1 nM INSL3 (b): normalized to 1 nM INSL3 cAMP response
Procedure: Compound efficacy and EC50 were determined by measuring cAMP induction in vitro. HEK293T cells stably expressing RXFP2 (HEK-RXFP2) produce cAMP when RXFP2 is activated, which can be measured in an antibody-based immunoassay utilizing a fluorescent readout (cAMP Gs HiRange Kit, PerkinElmer, Waltham, MA). HEK-RXFP2 cells were seeded in 96-well plates in serum-free DMEM and incubated overnight at 37° C., 5% CO2. Plates were then treated with a compound titration up to 25 μM or INSL3 control, in the presence of isobutylmethylxanthine phosphodiesterase inhibitor (IBMX) at 200 μM to amplify the cAMP signal, for 1 hour at 37° C., 5% CO2 before being processed as per kit instructions. Table 7 lists the efficacy and EC50 of compounds tested under different experimental conditions. […] In condition (a), 20,000 cells were seeded per well in the 96 well plate, and efficacy was determined by normalizing the maximum compound cAMP response to the 1 nM INSL3 cAMP response (% Efficacy 1 nM INSL3 (a)). In condition (b), 10,000 cells were seeded per well, and compound response was normalized to the 1 nM INSL3 cAMP response (% Efficacy 1 nM INSL3 (b)). In condition (c), 7,500 cells were seeded per well, compound response was normalized to the 100 nM INSL3 cAMP response, and IBMX was omitted (% Efficacy 100 nM INSL3 (c)). A range is given when compounds were tested multiple times. Where compounds were tested under multiple experimental conditions, the EC50 listed for the corresponding condition is marked (a) through (c) to correlate. When EC50 could not be calculated from the dose-response curve, EC50 is listed as not determined (ND).

[1] = condition (a): 20,000 cells/well
[2] = condition (b): 10,000 cells/well

T1 sequence (Q8WXD0 whole entry): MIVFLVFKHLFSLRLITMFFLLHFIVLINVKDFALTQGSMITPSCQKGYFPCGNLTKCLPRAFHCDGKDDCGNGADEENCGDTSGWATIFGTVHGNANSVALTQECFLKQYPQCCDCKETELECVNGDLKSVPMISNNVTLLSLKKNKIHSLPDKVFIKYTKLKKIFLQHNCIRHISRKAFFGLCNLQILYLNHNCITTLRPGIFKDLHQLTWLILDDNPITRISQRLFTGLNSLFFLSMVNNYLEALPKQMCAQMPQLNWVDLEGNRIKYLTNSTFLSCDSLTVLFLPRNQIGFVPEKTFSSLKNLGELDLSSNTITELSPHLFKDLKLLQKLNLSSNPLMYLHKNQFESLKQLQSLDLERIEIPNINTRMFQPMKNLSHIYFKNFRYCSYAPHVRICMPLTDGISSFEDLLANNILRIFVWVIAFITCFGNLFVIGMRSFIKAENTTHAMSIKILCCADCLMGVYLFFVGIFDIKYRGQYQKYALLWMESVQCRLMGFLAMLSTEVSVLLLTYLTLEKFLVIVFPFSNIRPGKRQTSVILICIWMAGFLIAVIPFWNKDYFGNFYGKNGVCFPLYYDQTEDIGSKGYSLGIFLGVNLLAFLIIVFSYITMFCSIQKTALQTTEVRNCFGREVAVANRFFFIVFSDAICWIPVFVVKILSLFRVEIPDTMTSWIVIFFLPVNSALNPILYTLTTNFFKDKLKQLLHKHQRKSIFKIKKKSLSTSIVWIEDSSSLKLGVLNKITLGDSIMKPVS

Structure (SMILES)	pEC50 [2]	% EFF vs. 1 nM INSL3 (b) [2]	also measured
O=C1Nc2ccc(-c3cccc(C(F)F)c3)cc2C(=O)N2CCN(C(=O)COc3ccc(OC(F)(F)F)cc3Br)C[C@@H]12 [Example 178, (S)-2-(2-(2-Bromo-4-(trifluoromethoxy)phenoxy)acetyl)-8-(3-(difluoromethyl)phenyl)-1,3,4,12a-tetrahydrobenzo[e]pyrazino[1,2-a][1,4]diazepine-6,12 (2H, 11H)-dione]			% EFF vs. 100 nM INSL3 (c) (condition (c): 7,500 cells/well, IBMX omitted, normalized to 100 nM INSL3 cAMP response): 52.68%
Cc1cc(OC(F)(F)F)ccc1OCC(=O)N1CCN2C(=O)c3cc(-c4cccc(C(F)(F)F)c4)ccc3NC(=O)[C@H]2C1 [Example 121, (R)-2-(2-(2-methyl-4-(trifluoromethoxy)phenoxy)acetyl)-8-(3-(trifluoromethyl)phenyl)-1,3,4,12a-tetrahydrobenzo[e]pyrazino[1,2-a][1,4]diazepine-6,12 (2H, 11H)-dione]			% EFF vs. 1 nM INSL3 (a) [1]: 28.28%
O=C1Nc2ccc(-c3cccc(C(F)(F)F)c3)cc2C(=O)N2CCN(C(=O)COc3ccccc3)C[C@H]12 [Example 115, (R)-2-(2-phenoxyacetyl)-8-(3-(trifluoromethyl)phenyl)-1,3,4,12a-tetrahydrobenzo[e]pyrazino[1,2-a][1,4]diazepine-6,12 (2H, 11H)-dione]			% EFF vs. 1 nM INSL3 (a) [1]: 3.69%
Cc1ccc(C(F)(F)F)cc1-c1ccc2c(c1)C(=O)N1CCN(C(=O)COc3ccc(OC(F)(F)F)cc3Cl)C[C@H]1C(=O)N2 [Example 136, (S)-2-(2-(2-Chloro-4-(trifluoromethoxy)phenoxy)acetyl)-8-(2-methyl-5-(trifluoromethyl)phenyl)-1,3,4,12a-tetrahydrobenzo[e]pyrazino[1,2-a][1,4]diazepine-6,12 (2H, 11H)-dione]	7.05 to 7.17	92.5-107.57%	
O=C1Nc2ccc(-c3cccc(C(F)(F)F)c3)cc2C(=O)N2CCN(C(=O)COc3ccc(C(F)(F)F)c(F)c3F)C[C@@H]12 [Example 146, (S)-2-(2-(2,3-difluoro-4-(trifluoromethyl)phenoxy)acetyl)-8-(3-(trifluoromethyl)phenyl)-1,3,4,12a-tetrahydrobenzo[e]pyrazino[1,2-a][1,4]diazepine-6,12 (2H, 11H)-dione]		47.43%	
O=C1Nc2ccc(-c3cc(F)cc(C(F)(F)F)c3)cc2C(=O)N2CCN(C(=O)COc3ccc(C(F)(F)F)cc3Cl)C[C@@H]12 [Example 142, (S)-2-(2-(2-chloro-4-(trifluoromethyl)phenoxy)acetyl)-8-(3-fluoro-5-(trifluoromethyl)phenyl)-1,3,4,12a-tetrahydrobenzo[e]pyrazino[1,2-a][1,4]diazepine-6,12 (2H, 11H)-dione]	7.32	80.32%	
Cc1cc(-c2ccc3c(c2)C(=O)N2CCN(C(=O)COc4ccc(OC(F)(F)F)cc4Cl)C[C@H]2CN3)cc(C(F)(F)F)c1.O=C(O)C(F)(F)F [Example 151, (R)-2-(2-(2-chloro-4-(trifluoromethoxy)phenoxy)acetyl)-8-(3-methyl-5-(trifluoromethyl)phenyl)-1,3,4,11,12,12a-hexahydrobenzo[e]pyrazino[1,2-a][1,4]diazepin-6 (2H)-one-2,2,2-trifluoroacetate]		0.85%	
O=C1Nc2ccc(-c3cccc(C(F)(F)F)c3)cc2C(=O)N2CCN(C(=O)COc3ccc(OC(F)(F)F)cc3Cl)C[C@@H]12 [Example 117, (S)-2-(2-(2-chloro-4-(trifluoromethoxy)phenoxy)acetyl)-8-(3-(trifluoromethyl)phenyl)-1,3,4,12a-tetrahydrobenzo[e]pyrazino[1,2-a][1,4]diazepine-6,12 (2H, 11H)-dione]	7.81	77.84%	
O=C1Nc2ccc(-c3cccc(C(F)(F)F)c3)cc2C(=O)N2CCN(C(=O)COc3ccc(OC(F)F)cc3F)CC12 (stereo not shown) [Example 55, 2-(2-(4-(difluoromethoxy)-2-fluorophenoxy)acetyl)-8-(3-(trifluoromethyl)phenyl)-1,3,4,12a-tetrahydrobenzo[e]pyrazino[1,2-a][1,4]diazepine-6,12 (2H, 11H)-dione]			pEC50 [1]: 7.23 to 7.61; % EFF vs. 1 nM INSL3 (a) [1]: 20.07-42.35%
Cc1cc(-c2ccc3c(c2)C(=O)N2CCN(C(=O)COc4ccc(OC(F)(F)F)cc4Cl)C[C@H]2C(=O)N3)cc(C(F)(F)F)c1 [Example 150, (S)-2-(2-(2-chloro-4-(trifluoromethoxy)phenoxy)acetyl)-8-(3-methyl-5-(trifluoromethyl)phenyl)-1,3,4,12a-tetrahydrobenzo[e]pyrazino[1,2-a][1,4]diazepine-6,12 (2H, 11H)-dione]	7.65	103.32%	
Cc1cc(OC(F)(F)F)ccc1OCC(=O)N1CCN2C(=O)c3cc(-c4cccc(C(F)(F)F)n4)ccc3NC(=O)C2C1 (stereo not shown) [Example 108, 2-(2-(2-methyl-4-(trifluoromethoxy)phenoxy)-acetyl)-8-(6-(trifluoromethyl)pyridin-2-yl)-1,3,4,12a-tetrahydrobenzo[e]pyrazino[1,2-a][1,4]diazepine-6,12 (2H, 11H)-dione]		38.19%	
O=C1Nc2ccc(-c3cccc(C(F)(F)F)c3)cc2C(=O)N2CCN(CCOc3ccccc3)CC12 (stereo not shown) [Example 231, 2-(2-phenoxyethyl)-8-(3-(trifluoromethyl)phenyl)-1,3,4,12a-tetrahydrobenzo[e]pyrazino[1,2-a][1,4]diazepine-6,12 (2H, 11H)-dione]			% EFF vs. 1 nM INSL3 (a) [1]: 0.04%

Further lines, with some results ahead:

pEC50 [2]	% EFF vs. 1 nM INSL3 (b) [2]	Structure (SMILES)	also measured
6.63	132.67%	Cc1cc(OC(F)F)ccc1OCC(=O)N1CCN2C(=O)c3cc(-c4cccc(C(F)(F)F)c4)ccc3NC(=O)[C@@H]2C1 [Example 166, (S)-2-(2-(4-(difluoromethoxy)-2-methylphenoxy)acetyl)-8-(3-(trifluoromethyl)phenyl)-1,3,4,12a-tetrahydrobenzo[e]pyrazino[1,2-a][1,4]diazepine-6,12 (2H, 11H)-dione]	
	114.25%	O=C1Nc2ccc(-c3cc(Cl)cc(C(F)(F)F)c3)cc2C(=O)N2CCN(C(=O)COc3ccc(OC(F)(F)F)cc3Cl)C[C@@H]12 [Example 163, (S)-2-(2-(2-chloro-4-(trifluoromethoxy)phenoxy)acetyl)-8-(3-chloro-5-(trifluoromethyl)phenyl)-1,3,4,12a-tetrahydrobenzo[e]pyrazino[1,2-a][1,4]diazepine-6,12 (2H, 11H)-dione]	
6.92	130.93%	O=C1Nc2ccc(-c3cc(Cl)cc(C(F)(F)F)c3)cc2C(=O)N2CCN(C(=O)COc3ccc(OC(F)(F)F)cc3Br)C[C@@H]12 [Example 162, (S)-2-(2-(2-Bromo-4-(trifluoromethoxy)phenoxy)acetyl)-8-(3-chloro-5-(trifluoromethyl)phenyl)-1,3,4,12a-tetrahydrobenzo[e]pyrazino[1,2-a][1,4]diazepine-6,12 (2H, 11H)-dione]	
